These are literature values, as cited in PubChem BioAssay AID1259409 (Chemical Carcinogenesis Research Information System (CCRIS), 2018).

For this series, the system named is rodent chemically induced tumor inhibition, incidence and multiplicity. As to the kind of experiment: CCRIS tumor inhibitor studies. Conditions: Route [Inhibitor]: ORAL.

Turning to `C[N+](C)(C)CCO`, the “tumour outcome (control, treated, inhibition, significance)” value is given as 7/9 (78%), 9/12 (75%), 4%, not calculated (Carcinogen: 3'-METHYL-4-DIMETHYLAMINOAZOBENZENE, 55-80-1, Dose [Inhibitor]: 0.1% IN DIET DAILY FOR 4 WK STARTING AFTER 4 WK OF CARCINOGEN TREATMENT (STUDY DURATION: 20 WK), Species: RAT, Target Tissue: Type of Lesion: LIVER: TUMOR, Dose [Carcinogen]: 0.064% IN DIET DAILY FOR 8 WK 4 WK BEFORE AND ANOTHER 4 WK AFTER AGENT TREATMENT, Promoter: NONE USED); 16%, 11%, 31%, not calculated (Carcinogen: DIETHYLNITROSAMINE, 55-18-5, Dose [Inhibitor]: 0, 1% IN DIET BEGINNING 1 WK POST CARCINOGEN DOSE (STUDY DURATION: 52 WK), Species: MOUSE, Strain/Sex: C3H/MALE, Target Tissue: Type of Lesion: LIVER: ADENOMA, Dose [Carcinogen]: 150 MG/KG ONCE, Promoter: PHENOBARBITAL, 50-06-6); 74%, 72%, 3%, not calculated (Carcinogen: DIETHYLNITROSAMINE, 55-18-5, Dose [Inhibitor]: 0, 1% IN DIET BEGINNING 1 WK POST CARCINOGEN DOSE (STUDY DURATION: 52 WK), Species: MOUSE, Strain/Sex: C3H/MALE, Target Tissue: Type of Lesion: LIVER: CARCINOMA, Dose [Carcinogen]: 150 MG/KG ONCE, Promoter: PHENOBARBITAL, 50-06-6); 6/14 (43%), 13/24 (54%), -26%, not calculated (Carcinogen: DIETHYLNITROSAMINE, 55-18-5, Dose [Inhibitor]: 0, 1% IN DIET BEGINNING 1 WK POST CARCINOGEN DOSE (STUDY DURATION: 52 WK), Species: MOUSE, Strain/Sex: C3H/MALE, Target Tissue: Type of Lesion: LUNG: ADENOMA OR ADENOCARCINOMA, Dose [Carcinogen]: 150 MG/KG ONCE, Promoter: NONE USED); 7/19 (37%), 4/18 (22%), 41%, not calculated (Carcinogen: DIETHYLNITROSAMINE, 55-18-5, Dose [Inhibitor]: 0, 1% IN DIET BEGINNING 1 WK POST CARCINOGEN DOSE (STUDY DURATION: 52 WK), Species: MOUSE, Strain/Sex: C3H/MALE, Target Tissue: Type of Lesion: LUNG: ADENOMA OR ADENOCARCINOMA, Dose [Carcinogen]: 150 MG/KG ONCE, Promoter: PHENOBARBITAL, 50-06-6); 14%, 21%, -50%, not calculated (Carcinogen: DIETHYLNITROSAMINE, 55-18-5, Dose [Inhibitor]: 0, 1% IN DIET BEGINNING 1 WK PRIOR TO POST CARCINOGEN DOSE (STUDY DURATION: 52 WK), Species: MOUSE, Strain/Sex: C3H/MALE, Target Tissue: Type of Lesion: LIVER: ADENOMA, Dose [Carcinogen]: 150 MG/KG ONCE, Promoter: NONE USED). Moreover, the “tumour outcome (control, treated, inhibition, significance)” value is, setting by setting: (Carcinogen: ETHIONINE, 13073-35-3, Dose [Inhibitor]: 2.1 MMOL/100 G DIET DAILY FOR 8 MO ADMINISTERED SIMULTANEOUSLY WITH CARCINOGEN FOLLOWED BY 2 MO ON BASAL DIET (STUDY DUR, Species: RAT, Strain/Sex: WISTAR/MALE, FEMALE, Target Tissue: Type of Lesion: LIVER: CARCINOMA, Dose [Carcinogen]: 0.25% OF DIET DAILY FOR 8 MO, Promoter: NONE USED) 9/10 (90%), 5/9 (56%), 38%, not calculated; (Carcinogen: ETHIONINE, 13073-35-3, Dose [Inhibitor]: 4.2 MMOL/100 G DIET DAILY FOR 8 MO ADMINISTERED SIMULTANEOUSLY WITH CARCINOGEN FOLLOWED BY 4 MO ON BASAL DIET (STUDY DUR, Species: RAT, Strain/Sex: WISTAR/MALE, Target Tissue: Type of Lesion: LIVER: CARCINOMA, Dose [Carcinogen]: 0.25% OF DIET DAILY FOR 8 MO, Promoter: NONE USED) 8/8 (100%), 6/10 (60%), 40%, not calculated; (Carcinogen: ETHIONINE, 13073-35-3, Dose [Inhibitor]: 5.7 MMOL/100 G DIET DAILY FOR 8 MO ADMINISTERED SIMULTANEOUSLY WITH CARCINOGEN FOLLOWED BY 4 MO ON BASAL DIET (STUDY DUR, Species: RAT, Strain/Sex: WISTAR/MALE, Target Tissue: Type of Lesion: LIVER: CARCINOMA, Dose [Carcinogen]: 0.25% OF DIET DAILY FOR 8 MO, Promoter: NONE USED) 8/8 (100%), 7/10 (70%), 30%, not calculated.
Take `CC1CCC(=O)O1` (stereo not given): the “tumour outcome (control, treated, inhibition, significance)” value (Carcinogen: BENZO[A]PYRENE, 50-32-8, Dose [Inhibitor]: 0.034 MMOL/G IN DIET FOR 5 WK BEGINNING 1 WK PRIOR TO CARCINOGEN DOSE (STUDY DURATION: 21 WK), Species: MOUSE, Strain/Sex: ICR/FEMALE, Target Tissue: Type of Lesion: FORESTOMACH: TUMOR, Dose [Carcinogen]: 1 MG IN 0.2 ML CORN OIL 2/WK FOR 4 WK, Promoter: NONE USED) is on record as “(95%, 95%, 0%, not significant”.
